Experimental data from US8779197B2, “Aryl amides useful as inhibitors of voltage-gated sodium channels” (Vertex Pharmaceuticals Incorporated, priority 2007, dated 2014).
Read-outs that look alike come from different tables or passages of the source.

Legend:
NaV1.3 [1] = target: T1, NaV1.3 (Homo sapiens, UniProt Q9NY46); experiment: Activity against NaV 1.3 channel (optical membrane potential assay); format: cell-based; design: expressed in transfected cells; host or cells: HEK293
Experimental: (§1) Compounds of the invention are useful as antagonists of voltage-gated sodium ion channels. Antagonist properties of test compounds were assessed as follows. Cells expressing the NaV of interest were placed into microtiter plates. After an incubation period, the cells were stained with fluorescent dyes sensitive to the transmembrane potential. The test compounds were added to the microtiter plate. The cells were stimulated with either a chemical or electrical means to evoke a NaV dependent membrane potential change from unblocked channels, which was detected and measured with trans-membrane potential-sensitive dyes. Antagonists were detected as a decreased membrane potential response to the stimulus. The optical membrane potential assay utilized voltage-sensitive FRET sensors described by Gonzalez and Tsien (See, Gonzalez, J. E. and R. Y. Tsien (1995) “Voltage sensing by fluorescence resonance energy transfer in single cells” Biophys J 69(4): 1272-80, and Gonzalez, J. E. and R. Y. Tsien (1997) “Improved indicators of cell membrane potential that use fluorescence resonance energy transfer” Chem Biol 4(4): 269-77) in combination with instrumentation for measuring fluorescence changes such as the Voltage/Ion Probe Reader (VIPR®) (See, Gonzalez, J. E., K. Oades, et al. (1999) “Cell-based assays and instrumentation for screening ion-channel targets” Drug Discov Today 4(9): 431-439).
(§2) C) VIPR® Optical Membrane Potential Assay Method with Electrical Stimulation
(§3) The following is an example of how NaV1.3 inhibition activity is measured using the optical membrane potential method#2. Other subtypes are performed in an analogous mode in a cell line expressing the NaV of interest.
HEK293 cells stably expressing NaV1.3 are plated into 96-well microtiter plates. After an appropriate incubation period, the cells are stained with the voltage sensitive dyes CC2-DMPE/DiSBAC2(3) as follows.
(§4) 10 mM CC2-DMPE is vortexed with an equivalent volume of 10% pluronic, followed by vortexing in required amount of HBSS containing 10 mM HEPES. Each cell plate will require 5 mL of 2×CC2-DMPE. 50 µL of 2×CC2-DMPE is to wells containing washed cells, resulting in a 10 μM final staining concentration. The cells are stained for 30 minutes in the dark at RT.
(§5) The required amount of 10 mM DISBAC2(3) is added to a 50 ml conical tube and mixed with 1 μL 10% pluronic for each mL of solution to be made and vortexed together. Then HBSS/HEPES is added to make up 2× solution. Finally, the ABSC1 is added.
(§6) The 2×DiSBAC2(3) solution can be used to solvate compound plates. Note that compound plates are made at 2× drug concentration. Wash stained plate again, leaving residual volume of 50 μL. Add 50 uL/well of the 2×DiSBAC2(3) w/ABSC1. Stain for 30 minutes in the dark at RT.
(§7) The electrical stimulation instrument and methods of use are described in ION Channel Assay Methods PCT/US01/21652, herein incorporated by reference. The instrument comprises a microtiter plate handler, an optical system for exciting the coumarin dye while simultaneously recording the coumarin and oxonol emissions, a waveform generator, a current- or voltage-controlled amplifier, and a device for inserting electrodes in well. Under integrated computer control, this instrument passes user-programmed electrical stimulus protocols to cells within the wells of the microtiter plate.
(§8) Assay Protocol • 1. Insert or use electrodes into each well to be assayed. • 2. Use the current-controlled amplifier to deliver stimulation wave pulses for 3 s. Two seconds of pre-stimulus recording are performed to obtain the un-stimulated intensities. Five seconds of post-stimulation recording are performed to examine the relaxation to the resting state.
Data are analyzed and reported as normalized ratios of background-subtracted emission intensities measured in the 460 nm and 580 nm channels. Background intensities are then subtracted from each assay channel. […]
Target sequence in this assay (Q9NY46 whole entry): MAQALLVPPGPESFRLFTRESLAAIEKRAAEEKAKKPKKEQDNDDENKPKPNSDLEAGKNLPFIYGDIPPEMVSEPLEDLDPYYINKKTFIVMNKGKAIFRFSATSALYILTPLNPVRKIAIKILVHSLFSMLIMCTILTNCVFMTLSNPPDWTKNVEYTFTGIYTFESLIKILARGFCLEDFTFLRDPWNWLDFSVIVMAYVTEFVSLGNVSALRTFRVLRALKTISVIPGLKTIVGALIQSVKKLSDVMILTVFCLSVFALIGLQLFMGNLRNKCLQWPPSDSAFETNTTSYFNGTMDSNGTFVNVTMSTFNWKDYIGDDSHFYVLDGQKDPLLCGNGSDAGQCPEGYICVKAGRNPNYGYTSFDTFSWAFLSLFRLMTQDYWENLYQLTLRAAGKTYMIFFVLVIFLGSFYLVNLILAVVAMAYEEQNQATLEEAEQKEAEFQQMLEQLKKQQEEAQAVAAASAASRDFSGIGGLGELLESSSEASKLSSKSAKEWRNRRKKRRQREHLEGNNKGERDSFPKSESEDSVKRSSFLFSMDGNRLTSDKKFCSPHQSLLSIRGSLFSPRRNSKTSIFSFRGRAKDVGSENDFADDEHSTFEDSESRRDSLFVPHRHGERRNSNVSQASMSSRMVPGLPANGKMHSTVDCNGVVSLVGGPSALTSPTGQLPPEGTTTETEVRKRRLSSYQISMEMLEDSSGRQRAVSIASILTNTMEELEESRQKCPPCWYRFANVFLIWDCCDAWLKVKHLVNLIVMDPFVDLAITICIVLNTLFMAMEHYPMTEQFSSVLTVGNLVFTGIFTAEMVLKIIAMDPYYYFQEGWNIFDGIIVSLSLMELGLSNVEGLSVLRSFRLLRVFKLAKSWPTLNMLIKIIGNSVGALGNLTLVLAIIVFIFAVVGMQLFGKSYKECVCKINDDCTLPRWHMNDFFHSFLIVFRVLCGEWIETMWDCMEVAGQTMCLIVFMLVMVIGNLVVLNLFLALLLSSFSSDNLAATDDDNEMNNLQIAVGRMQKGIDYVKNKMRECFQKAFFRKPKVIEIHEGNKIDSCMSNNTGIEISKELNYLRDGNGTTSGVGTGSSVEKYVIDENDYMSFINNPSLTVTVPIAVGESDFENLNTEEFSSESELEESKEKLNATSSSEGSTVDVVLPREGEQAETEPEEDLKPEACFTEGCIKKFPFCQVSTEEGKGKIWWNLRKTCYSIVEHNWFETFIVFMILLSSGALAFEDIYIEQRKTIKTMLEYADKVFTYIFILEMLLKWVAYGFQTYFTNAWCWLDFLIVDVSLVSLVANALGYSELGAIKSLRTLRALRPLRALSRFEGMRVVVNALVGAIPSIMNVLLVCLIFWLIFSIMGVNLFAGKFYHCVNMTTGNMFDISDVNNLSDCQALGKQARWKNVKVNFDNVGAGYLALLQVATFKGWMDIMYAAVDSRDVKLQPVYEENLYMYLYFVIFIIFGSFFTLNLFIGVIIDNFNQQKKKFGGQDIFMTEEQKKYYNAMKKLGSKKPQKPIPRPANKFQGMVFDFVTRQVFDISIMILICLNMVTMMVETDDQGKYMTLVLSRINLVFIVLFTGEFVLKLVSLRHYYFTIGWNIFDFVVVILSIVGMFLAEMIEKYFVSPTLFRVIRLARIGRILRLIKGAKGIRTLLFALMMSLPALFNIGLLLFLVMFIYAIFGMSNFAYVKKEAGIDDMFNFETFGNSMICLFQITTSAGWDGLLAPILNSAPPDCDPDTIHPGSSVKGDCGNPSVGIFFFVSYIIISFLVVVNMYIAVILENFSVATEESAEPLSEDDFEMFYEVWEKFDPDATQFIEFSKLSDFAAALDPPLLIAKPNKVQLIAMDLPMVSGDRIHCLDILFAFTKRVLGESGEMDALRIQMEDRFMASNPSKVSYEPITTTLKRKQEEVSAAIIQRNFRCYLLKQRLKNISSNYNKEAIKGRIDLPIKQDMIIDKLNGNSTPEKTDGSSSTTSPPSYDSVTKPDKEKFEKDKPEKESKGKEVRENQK

NaV1.8 = NaV1.8 (Homo sapiens, UniProt Q9Y5Y9); experiment: Activity against NaV 1.8 channel (optical membrane potential assay); format: cell-based
Experimental: as §1, §2, §3, §4, §5, §6, §7, §8
(§9) Data are analyzed and reported as normalized ratios of background-subtracted emission intensities measured in the 460 nm and 580 nm channels. Background intensities are then subtracted from each assay channel. Background intensities are obtained by measuring the emission intensities during the same time periods from identically treated assay wells in which there are no cells. The response as a function of time is then reported as the ratios obtained using the following formula: […]

NaV 1.7 channel = NaV 1.7 channel (Homo sapiens, UniProt Q15858); experiment: Activity against NaV 1.7 channel (optical membrane potential assay); format: cell-based
Experimental: as §1, §2, §3, §4, §5, §6, §7, §8, §9

NaV1.2 = NaV1.2 (Homo sapiens, UniProt Q99250); conditions: read-out: TTX IC50; cited from earlier work
NaV1.3 [2] = target: T1, NaV1.3; conditions: read-out: TTX IC50; cited from earlier work
Target sequence in this assay (Q9NY46 whole entry, looked up): as the sequence (Q9NY46 whole entry) above

NaV1.9 = NaV1.9 (Homo sapiens, UniProt Q9UI33); conditions: read-out: TTX IC50; cited from earlier work
NaV1.6 = NaV1.6 (Homo sapiens, UniProt Q9UQD0); conditions: read-out: TTX IC50; cited from earlier work
NaV1.1 = NaV1.1 (Homo sapiens, UniProt P35498); conditions: read-out: TTX IC50; cited from earlier work

Chain of NaV 1.7 channel (Q15858 whole entry): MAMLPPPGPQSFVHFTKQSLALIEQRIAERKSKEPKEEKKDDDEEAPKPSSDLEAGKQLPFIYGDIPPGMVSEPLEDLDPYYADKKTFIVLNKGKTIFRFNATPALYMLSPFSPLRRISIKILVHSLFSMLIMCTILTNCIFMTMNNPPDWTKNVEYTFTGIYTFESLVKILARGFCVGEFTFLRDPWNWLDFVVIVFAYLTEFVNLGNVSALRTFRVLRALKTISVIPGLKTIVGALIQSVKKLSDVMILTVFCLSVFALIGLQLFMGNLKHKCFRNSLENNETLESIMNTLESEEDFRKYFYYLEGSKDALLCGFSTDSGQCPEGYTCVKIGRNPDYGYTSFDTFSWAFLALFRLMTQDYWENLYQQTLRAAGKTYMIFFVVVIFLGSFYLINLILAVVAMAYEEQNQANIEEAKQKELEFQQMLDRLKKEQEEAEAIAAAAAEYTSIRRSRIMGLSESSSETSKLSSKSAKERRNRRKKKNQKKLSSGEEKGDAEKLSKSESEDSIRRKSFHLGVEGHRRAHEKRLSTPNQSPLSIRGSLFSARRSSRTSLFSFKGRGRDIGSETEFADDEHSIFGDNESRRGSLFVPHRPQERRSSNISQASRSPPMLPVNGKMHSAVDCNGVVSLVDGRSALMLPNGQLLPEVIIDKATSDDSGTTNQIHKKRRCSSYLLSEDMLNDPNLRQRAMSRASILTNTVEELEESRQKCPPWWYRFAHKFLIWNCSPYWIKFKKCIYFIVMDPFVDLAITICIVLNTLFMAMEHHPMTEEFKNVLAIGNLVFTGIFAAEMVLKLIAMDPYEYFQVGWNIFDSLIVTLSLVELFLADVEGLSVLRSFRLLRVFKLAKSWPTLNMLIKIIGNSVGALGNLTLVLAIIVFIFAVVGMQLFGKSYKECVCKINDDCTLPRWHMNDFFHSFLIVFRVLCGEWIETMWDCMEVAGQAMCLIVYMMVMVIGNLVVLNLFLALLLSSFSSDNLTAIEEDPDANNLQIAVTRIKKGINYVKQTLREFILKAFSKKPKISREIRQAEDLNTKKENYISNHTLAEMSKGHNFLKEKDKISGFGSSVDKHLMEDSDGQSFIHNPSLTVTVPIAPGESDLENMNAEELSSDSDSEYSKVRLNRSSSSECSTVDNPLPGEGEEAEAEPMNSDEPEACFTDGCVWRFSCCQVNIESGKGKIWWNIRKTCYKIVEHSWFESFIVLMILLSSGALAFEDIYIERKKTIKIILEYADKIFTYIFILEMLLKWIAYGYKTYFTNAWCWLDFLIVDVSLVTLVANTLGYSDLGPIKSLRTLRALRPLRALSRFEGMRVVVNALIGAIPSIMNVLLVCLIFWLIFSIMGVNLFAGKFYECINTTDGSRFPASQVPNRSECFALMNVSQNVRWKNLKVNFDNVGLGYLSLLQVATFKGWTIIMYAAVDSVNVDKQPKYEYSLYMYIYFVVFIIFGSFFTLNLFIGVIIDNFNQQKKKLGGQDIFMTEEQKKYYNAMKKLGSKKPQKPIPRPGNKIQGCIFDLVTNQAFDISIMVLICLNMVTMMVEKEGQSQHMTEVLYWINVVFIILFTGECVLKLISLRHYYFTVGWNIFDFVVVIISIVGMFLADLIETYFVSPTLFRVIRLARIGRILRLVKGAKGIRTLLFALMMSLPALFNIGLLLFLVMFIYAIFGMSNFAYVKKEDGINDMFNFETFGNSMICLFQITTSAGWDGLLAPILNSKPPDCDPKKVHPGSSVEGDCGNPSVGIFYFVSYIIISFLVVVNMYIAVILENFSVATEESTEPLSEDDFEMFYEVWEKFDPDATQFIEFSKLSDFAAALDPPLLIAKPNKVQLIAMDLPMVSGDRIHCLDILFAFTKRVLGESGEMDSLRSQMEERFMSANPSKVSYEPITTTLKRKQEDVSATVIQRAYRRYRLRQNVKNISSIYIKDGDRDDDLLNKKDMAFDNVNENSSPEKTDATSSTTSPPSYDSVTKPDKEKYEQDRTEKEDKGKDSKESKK

SMILES	IC50 (NaV1.3 [1])	IC50 (NaV1.8)	IC50 (NaV 1.7 channel)	other results
NC(=O)c1cccc(NC(=O)c2ccccc2Cc2ccccc2)c1 [Compound 1]	> 20 µM			
NC(=O)c1cccc(NC(=O)c2ccccc2Nc2cccc(F)c2)c1 [Compound 2]	> 20 µM			
NC(=O)c1cccc(NC(=O)c2ccccc2Oc2ccc(F)cc2)c1 [Compound 3, N-(3-carbamoylphenyl)-2-(4-fluorophenoxy)benzamide]	10 to 20 µM	< 2 µM		
NC(=O)c1cccc(NC(=O)c2ccccc2Oc2ccc(Br)cc2)c1 [Compound 4]	2 to 10 µM	< 2 µM		
NC(=O)c1cccc(NC(=O)c2ccccc2Oc2ccc(C(F)(F)F)cc2)c1 [Compound 5]	10 to 20 µM			
Cc1ncccc1Oc1cc(C(C)(C)C)ccc1C(=O)Nc1cccc(C(N)=O)c1 [Compound 6]	> 20 µM	< 2 µM	> 20 µM	
CC(C)(C)c1ccc(C(=O)Nc2cccc(C(N)=O)c2)c(Oc2ccc(C(F)(F)F)nc2)c1 [Compound 7]	10 to 20 µM	< 2 µM	2 to 10 µM	
CC(C)(C)c1ccc(C(=O)Nc2cccc(C(N)=O)c2)c(Oc2ccc(F)cc2Cl)c1 [Compound 8]	10 to 20 µM	< 2 µM	2 to 10 µM	
CC(C)(C)c1ccc(C(=O)Nc2cccc(S(C)(=O)=O)c2)c(Oc2ccc(F)cc2Cl)c1 [Compound 9]	10 to 20 µM	< 2 µM	2 to 10 µM	
CC(C)(C)c1ccc(C(=O)Nc2cccc(NS(C)(=O)=O)c2)c(Oc2ccc(F)cc2Cl)c1 [Compound 10]	10 to 20 µM	2 to 10 µM	2 to 10 µM	
CNC(=O)c1cccc(NC(=O)c2ccc(C(C)(C)C)cc2Oc2ccc(F)cc2Cl)c1 [Compound 11]	2 to 10 µM	< 2 µM	2 to 10 µM	
Cc1ncccc1Oc1cc(C(C)(C)C)ccc1C(=O)Nc1cccc(S(C)(=O)=O)c1 [Compound 12]	> 20 µM	< 2 µM	2 to 10 µM	
CC(C)(C)c1ccc(C(=O)Nc2cccc(S(C)(=O)=O)c2)c(Oc2ncccc2C#N)c1 [Compound 14]	2 to 10 µM	< 2 µM	< 2 µM	
CC(C)(C)c1ccc(C(=O)Nc2cccc(S(C)(=O)=O)c2)c(Oc2cnccc2C(F)(F)F)c1 [Compound 15]	2 to 10 µM	< 2 µM	2 to 10 µM	
CC(C)(C)c1ccc(C(=O)Nc2cccc(S(C)(=O)=O)c2)c(Oc2cccnc2C(F)(F)F)c1 [Compound 16]	10 to 20 µM	< 2 µM	2 to 10 µM	
CC(C)(C)c1ccc(C(=O)Nc2cccc(S(C)(=O)=O)c2)c(Oc2cccc(C(F)(F)F)n2)c1 [Compound 17]	10 to 20 µM	< 2 µM	10 to 20 µM	
CC(C)(C)c1ccc(C(=O)Nc2cccc(S(C)(=O)=O)c2)c(Oc2ncccc2C(F)(F)F)c1 [Compound 18]	10 to 20 µM	< 2 µM	2 to 10 µM	
CN(C(=O)c1ccc(C(C)(C)C)cc1Oc1ccc(F)cc1Cl)c1cccc(S(C)(=O)=O)c1 [Compound 19, 4-tert-Butyl-2-(2-chloro-4-fluorophenoxy)-N-methyl-N-(3-(methylsulfonyl)phenyl)benzamide]	2 to 10 µM	2 to 10 µM	2 to 10 µM	
NC1=N[C@H](O)[C@H]2[C@H]3O[C@]4(O)O[C@@H]([C@@H](O)[C@@]2(N1)[C@@H]4O)[C@]3(O)CO [TTX, tetrodotoxin]				IC50 (NaV1.2): 0.01 µM; IC50 (NaV1.3 [2]): 0.015 µM; IC50 (NaV1.9): 1 µM; IC50 (NaV1.6): 0.006 µM; IC50 (NaV1.1): 0.01 µM
